Measured values from ChEMBL document CHEMBL3045223, “Synthesis, nematicidal and antimicrobial properties of Bis-[4-methoxy-3-[3-(4-fluorophenyl)-6-(4-methylphenyl)-2(aryl)-tetrahydro-2H-pyrazolo[3,4-d]thiazol-5-yl]phenyl]methanes” (2009).
Values after ≈ are worked out from the molar mass of the structure shown.

Each compound was assayed on Klebsiella aerogenes (assay: Antibacterial activity against Enterobacter aerogenes MTCC 39 assessed as inhibition zones at 300 ug/disk at 37 degC for 24 hr). Details: MTCC 39, 24 h, read-out: IZ.
Type: functional

Row | SMILES | zone of inhibition at 300 µg/disc [mm]
1 | COc1ccc(Cc2ccc(OC)c(C3SC4C(=NN(c5ccccc5)C4c4ccc(F)cc4)N3c3ccc([N+](=O)[O-])cc3)c2)cc1C1SC2C(=NN(c3ccccc3)C2c2ccc(F)cc2)N1c1ccc([N+](=O)[O-])cc1 (configuration not stated) | 24

What follows are compounds tested on Trichophyton mentagrophytes (assay: Antifungal activity against Trichophyton mentagrophytes IFO 40996 assessed as growth inhibition at 37 degC for 48 hr). Details: IFO 40996, 48 h.
Type: functional

Row | SMILES | MBC [µg/mL] | MIC [µg/mL]
2 | COc1ccc(Cc2ccc(OC)c(C3SC4C(=NN(c5ccccc5)C4c4ccc(F)cc4)N3c3ccc([N+](=O)[O-])cc3)c2)cc1C1SC2C(=NN(c3ccccc3)C2c2ccc(F)cc2)N1c1ccc([N+](=O)[O-])cc1 (configuration not stated) | 12.5 (≈ 11.7 µM) | 12.5 (≈ 11.7 µM)

The compounds below were run on Pseudomonas aeruginosa (assay: Antibacterial activity against Pseudomonas aeruginosa MTCC 741 assessed as inhibition zones at 300 ug/disk at 37 degC for 24 hr). Details: MTCC 741, 24 h, read-out: IZ.
Type: functional

Row | SMILES | zone of inhibition at 300 µg/disc [mm]
3 | COc1ccc(Cc2ccc(OC)c(C3SC4C(=NN(c5ccccc5)C4c4ccc(F)cc4)N3c3ccc([N+](=O)[O-])cc3)c2)cc1C1SC2C(=NN(c3ccccc3)C2c2ccc(F)cc2)N1c1ccc([N+](=O)[O-])cc1 (configuration not stated) | 11

Each compound was assayed on Trichophyton rubrum (assay: Antifungal activity against Trichophyton rubrum IFO 9185 assessed as growth inhibition at 300 ug/disk at 37 degC for 48 hr). Details: IFO 9185, 48 h, read-out: IZ.
Type: functional

Row | SMILES | zone of inhibition at 300 µg/disc [mm]
4 | COc1ccc(Cc2ccc(OC)c(C3SC4C(=NN(c5ccccc5)C4c4ccc(F)cc4)N3c3ccc([N+](=O)[O-])cc3)c2)cc1C1SC2C(=NN(c3ccccc3)C2c2ccc(F)cc2)N1c1ccc([N+](=O)[O-])cc1 (configuration not stated) | 10

Each compound was assayed on Lysinibacillus sphaericus (assay: Antibacterial activity against Lysinibacillus sphaericus MTCC 11 assessed as growth arrest at 37 degC for 24 hr). Details: MTCC 11, 24 h.
Type: functional

Row | SMILES | MBC [µg/mL] | MIC [µg/mL]
5 | COc1ccc(Cc2ccc(OC)c(C3SC4C(=NN(c5ccccc5)C4c4ccc(F)cc4)N3c3ccc([N+](=O)[O-])cc3)c2)cc1C1SC2C(=NN(c3ccccc3)C2c2ccc(F)cc2)N1c1ccc([N+](=O)[O-])cc1 (configuration not stated) | 12.5 (≈ 11.7 µM) | 6.25 (≈ 5.87 µM)

The compounds below were run on Chromobacterium violaceum (assay: Antibacterial activity against Chromobacterium violaceum MTCC 2656 assessed as inhibition zones at 300 ug/disk at 37 degC for 24 hr). Details: MTCC 2656, 24 h, read-out: IZ.
Type: functional

Row | SMILES | zone of inhibition at 300 µg/disc [mm]
6 | COc1ccc(Cc2ccc(OC)c(C3SC4C(=NN(c5ccccc5)C4c4ccc(F)cc4)N3c3ccc([N+](=O)[O-])cc3)c2)cc1C1SC2C(=NN(c3ccccc3)C2c2ccc(F)cc2)N1c1ccc([N+](=O)[O-])cc1 (configuration not stated) | 11

What follows are compounds tested on Pseudomonas aeruginosa (assay: Antibacterial activity against Pseudomonas aeruginosa MTCC 741 assessed as growth arrest at 37 degC for 24 hr). Details: MTCC 741, 24 h.
Type: functional

Row | SMILES | MBC [µg/mL] | MIC [µg/mL]
7 | COc1ccc(Cc2ccc(OC)c(C3SC4C(=NN(c5ccccc5)C4c4ccc(F)cc4)N3c3ccc([N+](=O)[O-])cc3)c2)cc1C1SC2C(=NN(c3ccccc3)C2c2ccc(F)cc2)N1c1ccc([N+](=O)[O-])cc1 (configuration not stated) | 25 (≈ 23.5 µM) | 6.25 (≈ 5.87 µM)

The compounds below were run on Candida albicans (assay: Antifungal activity against Candida albicans ATCC 10231 assessed as growth inhibition at 37 degC for 48 hr). Details: ATCC 10231, 48 h.
Type: functional

Row | SMILES | MBC [µg/mL] | MIC [µg/mL]
8 | COc1ccc(Cc2ccc(OC)c(C3SC4C(=NN(c5ccccc5)C4c4ccc(F)cc4)N3c3ccc([N+](=O)[O-])cc3)c2)cc1C1SC2C(=NN(c3ccccc3)C2c2ccc(F)cc2)N1c1ccc([N+](=O)[O-])cc1 (configuration not stated) | 25 (≈ 23.5 µM) | 12.5 (≈ 11.7 µM)

The compounds below were run on Bacillus subtilis (assay: Antibacterial activity against Bacillus subtilis MTCC 441 assessed as inhibition zones at 300 ug/disk at 37 degC for 24 hr). Details: MTCC 441, 24 h, read-out: IZ.
Type: functional

Row | SMILES | zone of inhibition at 300 µg/disc [mm]
9 | COc1ccc(Cc2ccc(OC)c(C3SC4C(=NN(c5ccccc5)C4c4ccc(F)cc4)N3c3ccc([N+](=O)[O-])cc3)c2)cc1C1SC2C(=NN(c3ccccc3)C2c2ccc(F)cc2)N1c1ccc([N+](=O)[O-])cc1 (configuration not stated) | 21

These compounds were tested on Candida albicans (assay: Antifungal activity against Candida albicans ATCC 10231 assessed as growth inhibition at 300 ug/disk at 37 degC for 48 hr). Details: ATCC 10231, 48 h, read-out: IZ.
Type: functional

Row | SMILES | zone of inhibition at 300 µg/disc [mm]
10 | COc1ccc(Cc2ccc(OC)c(C3SC4C(=NN(c5ccccc5)C4c4ccc(F)cc4)N3c3ccc([N+](=O)[O-])cc3)c2)cc1C1SC2C(=NN(c3ccccc3)C2c2ccc(F)cc2)N1c1ccc([N+](=O)[O-])cc1 (configuration not stated) | 8

The compounds below were run on Trichophyton rubrum (assay: Antifungal activity against Trichophyton rubrum IFO 9185 assessed as growth inhibition at 37 degC for 48 hr). Details: IFO 9185, 48 h.
Type: functional

Row | SMILES | MBC [µg/mL] | MIC [µg/mL]
11 | COc1ccc(Cc2ccc(OC)c(C3SC4C(=NN(c5ccccc5)C4c4ccc(F)cc4)N3c3ccc([N+](=O)[O-])cc3)c2)cc1C1SC2C(=NN(c3ccccc3)C2c2ccc(F)cc2)N1c1ccc([N+](=O)[O-])cc1 (configuration not stated) | 25 (≈ 23.5 µM) | 6.25 (≈ 5.87 µM)

The compounds below were run on Staphylococcus aureus (assay: Antibacterial activity against Staphylococcus aureus MTCC 96 assessed as growth arrest at 37 degC for 24 hr). Details: MTCC 96, 24 h.
Type: functional

Row | SMILES | MBC [µg/mL] | MIC [µg/mL]
12 | COc1ccc(Cc2ccc(OC)c(C3SC4C(=NN(c5ccccc5)C4c4ccc(F)cc4)N3c3ccc([N+](=O)[O-])cc3)c2)cc1C1SC2C(=NN(c3ccccc3)C2c2ccc(F)cc2)N1c1ccc([N+](=O)[O-])cc1 (configuration not stated) | 25 (≈ 23.5 µM) | 6.25 (≈ 5.87 µM)

What follows are compounds tested on Aspergillus fumigatus (assay: Antifungal activity against Aspergillus fumigatus HIC 6094 assessed as growth inhibition at 37 degC for 48 hr). Details: HIC 6094, 48 h.
Type: functional

Row | SMILES | MBC [µg/mL] | MIC [µg/mL]
13 | COc1ccc(Cc2ccc(OC)c(C3SC4C(=NN(c5ccccc5)C4c4ccc(F)cc4)N3c3ccc([N+](=O)[O-])cc3)c2)cc1C1SC2C(=NN(c3ccccc3)C2c2ccc(F)cc2)N1c1ccc([N+](=O)[O-])cc1 (configuration not stated) | 50 (≈ 46.9 µM) | 12.5 (≈ 11.7 µM)

Each compound was assayed on Lysinibacillus sphaericus (assay: Antibacterial activity against Lysinibacillus sphaericus MTCC 11 assessed as inhibition zones at 300 ug/disk at 37 degC for 24 hr). Details: MTCC 11, 24 h, read-out: IZ.
Type: functional

Row | SMILES | zone of inhibition at 300 µg/disc [mm]
14 | COc1ccc(Cc2ccc(OC)c(C3SC4C(=NN(c5ccccc5)C4c4ccc(F)cc4)N3c3ccc([N+](=O)[O-])cc3)c2)cc1C1SC2C(=NN(c3ccccc3)C2c2ccc(F)cc2)N1c1ccc([N+](=O)[O-])cc1 (configuration not stated) | 22

What follows are compounds tested on Klebsiella aerogenes (assay: Antibacterial activity against Enterobacter aerogenes MTCC 39 assessed as growth arrest at 37 degC for 24 hr). Details: MTCC 39, 24 h.
Type: functional

Row | SMILES | MBC [µg/mL] | MIC [µg/mL]
15 | COc1ccc(Cc2ccc(OC)c(C3SC4C(=NN(c5ccccc5)C4c4ccc(F)cc4)N3c3ccc([N+](=O)[O-])cc3)c2)cc1C1SC2C(=NN(c3ccccc3)C2c2ccc(F)cc2)N1c1ccc([N+](=O)[O-])cc1 (configuration not stated) | 25 (≈ 23.5 µM) | 12.5 (≈ 11.7 µM)

What follows are compounds tested on Trichophyton mentagrophytes (assay: Antifungal activity against Trichophyton mentagrophytes IFO 40996 assessed as growth inhibition at 300 ug/disc at 37 degC for 48 hr). Details: IFO 40996, 48 h, read-out: IZ.
Type: functional

Row | SMILES | zone of inhibition at 300 µg/disc [mm]
16 | COc1ccc(Cc2ccc(OC)c(C3SC4C(=NN(c5ccccc5)C4c4ccc(F)cc4)N3c3ccc([N+](=O)[O-])cc3)c2)cc1C1SC2C(=NN(c3ccccc3)C2c2ccc(F)cc2)N1c1ccc([N+](=O)[O-])cc1 (configuration not stated) | 9

These compounds were tested on Aspergillus fumigatus (assay: Antifungal activity against Aspergillus fumigatus HIC 6094 assessed as growth inhibition at 300 ug/disc at 37 degC for 48 hr). Details: HIC 6094, 48 h, read-out: IZ.
Type: functional

Row | SMILES | zone of inhibition at 300 µg/disc [mm]
17 | COc1ccc(Cc2ccc(OC)c(C3SC4C(=NN(c5ccccc5)C4c4ccc(F)cc4)N3c3ccc([N+](=O)[O-])cc3)c2)cc1C1SC2C(=NN(c3ccccc3)C2c2ccc(F)cc2)N1c1ccc([N+](=O)[O-])cc1 (configuration not stated) | 11

These compounds were tested on Staphylococcus aureus (assay: Antibacterial activity against Staphylococcus aureus MTCC 96 assessed as inhibition zones at 300 ug/disc at 37 degC for 24 hr). Details: MTCC 96, 24 h, read-out: IZ.
Type: functional

Row | SMILES | zone of inhibition at 300 µg/disc [mm]
18 | COc1ccc(Cc2ccc(OC)c(C3SC4C(=NN(c5ccccc5)C4c4ccc(F)cc4)N3c3ccc([N+](=O)[O-])cc3)c2)cc1C1SC2C(=NN(c3ccccc3)C2c2ccc(F)cc2)N1c1ccc([N+](=O)[O-])cc1 (configuration not stated) | 20

Each compound was assayed on Bacillus subtilis (assay: Antibacterial activity against Bacillus subtilis MTCC 441 assessed as growth arrest at 37 degC for 24 hr). Details: MTCC 441, 24 h.
Type: functional

Row | SMILES | MBC [µg/mL] | MIC [µg/mL]
19 | COc1ccc(Cc2ccc(OC)c(C3SC4C(=NN(c5ccccc5)C4c4ccc(F)cc4)N3c3ccc([N+](=O)[O-])cc3)c2)cc1C1SC2C(=NN(c3ccccc3)C2c2ccc(F)cc2)N1c1ccc([N+](=O)[O-])cc1 (configuration not stated) | 25 (≈ 23.5 µM) | 12.5 (≈ 11.7 µM)

Each compound was assayed on Caenorhabditis elegans (assay: Nematicidal activity against Caenorhabditis elegans assessed as immobility). Details: read-out: LD50 (the source's name).
Type: functional

Row | SMILES | LC50 [µg/mL]
20 | COc1ccc(Cc2ccc(OC)c(C3SC4C(=NN(c5ccccc5)C4c4ccc(F)cc4)N3c3ccc([N+](=O)[O-])cc3)c2)cc1C1SC2C(=NN(c3ccccc3)C2c2ccc(F)cc2)N1c1ccc([N+](=O)[O-])cc1 (configuration not stated) | 620 (≈ 582 µM)

The compounds below were run on Chromobacterium violaceum (assay: Antibacterial activity against Chromobacterium violaceum MTCC 2656 assessed as growth arrest at 37 degC for 24 hr). Details: MTCC 2656, 24 h.
Type: functional

Row | SMILES | MBC [µg/mL] | MIC [µg/mL]
21 | COc1ccc(Cc2ccc(OC)c(C3SC4C(=NN(c5ccccc5)C4c4ccc(F)cc4)N3c3ccc([N+](=O)[O-])cc3)c2)cc1C1SC2C(=NN(c3ccccc3)C2c2ccc(F)cc2)N1c1ccc([N+](=O)[O-])cc1 (configuration not stated) | 50 (≈ 46.9 µM) | 25 (≈ 23.5 µM)

These compounds were tested on Ditylenchus myceliophagus (assay: Nematicidal activity against Ditylenchus myceliophagus assessed as immobility). Details: read-out: LD50 (the source's name).
Type: functional

Row | SMILES | LC50 [µg/mL]
22 | COc1ccc(Cc2ccc(OC)c(C3SC4C(=NN(c5ccccc5)C4c4ccc(F)cc4)N3c3ccc([N+](=O)[O-])cc3)c2)cc1C1SC2C(=NN(c3ccccc3)C2c2ccc(F)cc2)N1c1ccc([N+](=O)[O-])cc1 (configuration not stated) | 800 (≈ 751 µM)
